According to PubChem BioAssay (NCI):
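1) Cells in 96-well plates. 2) Compound, 48 h, 5 concentrations. 3) Linear interpolation between surrounding doses. 4) Unreached endpoint = highest concentration. Abbreviation: GI50, concentration required for 50% inhibition of growth. TGI: concentration producing complete growth inhibition.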

Legend:
Assay in all cases: NCI anticancer screen, dose series, 48 h
[1] = system: 786-0 renal
[2] = system: CAKI-1 renal
[3] = system: M14 melanoma
[4] = system: NCI-H226 lung
[5] = system: RPMI-8226 leukemia
[6] = system: BT-549 breast
[7] = system: HL-60(TB) leukemia
[8] = system: HS 578T breast
[9] = system: MDA-MB-231 breast
[10] = system: T-47D breast

Row | SMILES | TGI [1] [µM] | TGI [2] [µM] | TGI [3] [µM] | TGI [4] [µM] | TGI [5] [µM] | TGI [6] [µM] | TGI [7] [µM] | TGI [8] [µM] | TGI [9] [µM] | TGI [10] [µM] | GI50 [1] [µM] | GI50 [2] [µM] | GI50 [7] [µM] | GI50 [3] [µM] | GI50 [4] [µM] | GI50 [5] [µM] | GI50 [8] [µM] | GI50 [9] [µM] | GI50 [10] [µM] | GI50 [6] [µM]
1 | CC1=CCCC2C(C=O)(C1)CC(C)C2(CO)CC/C(=C/CO)CO (stereo not given) | > 100 | > 100 | > 100 | > 100 | > 100 |  |  |  |  |  |  |  |  |  |  |  |  |  |  | 
2 | COc1cc(C(=O)c2cocc2C(=O)c2ccc3c(c2)OCO3)cc(OC)c1OC | 39.7 | 35.7 | 33.5 | 21.1 | 32.3 | 0.552 | 2.06 | 5.27 | 48.5 |  |  |  |  |  |  |  |  |  |  | 
3 | CN(N)c1nc(N)c(C#N)c(C#N)c1C#N | > 10 | > 10 | > 10 |  | > 10 | > 10 | > 10 | > 10 | > 10 | > 10 |  |  |  |  |  |  |  |  |  | 
4 | O/N=C/c1ccc(O)c(O)c1 | > 100 | > 100 | > 100 | > 100 |  |  | 58.8 |  |  |  |  |  |  |  |  |  |  |  |  | 
5 | CC(=O)[CH-]C(=O)c1ccccc1.CC(=O)[CH-]C(=O)c1ccccc1.[O-]c1ccc2c(c1)OCO2.[O-]c1ccc2c(c1)OCO2.[Ti+4] | 80.7 | > 100 | 44.4 | 85 | 50.9 |  | 48 |  |  |  | 21.1 | 29.5 | 10.7 | 20.2 | 24.9 | 18.3 |  |  |  | 
6 | O=C1N=C(Nc2nc(-c3csc(NC4=NC(=O)/C(=C\c5ccccc5)S4)n3)cs2)S/C1=C/c1ccccc1 | 34.9 | > 50 | 32.3 | 12.8 | 3.35 |  | 36.8 | > 50 | 18.8 | > 50 | 9.54 | 29.2 | 14.3 | 4.63 | 0.337 | 0.629 | > 50 | 4.78 | > 50 | 
7 | COc1ccc([C@@H]2OC(=O)C3C2C(=O)O[C@H]3c2ccc(OC)c(OC)c2)cc1OC (stereo not given in full) | > 100 |  | > 100 | > 100 | > 100 |  | > 100 |  |  |  |  |  |  |  |  |  |  |  |  | 
8 | COc1ccc2c(c1)CN1CCc3c(cc(OC)c(OC)c3OC)C1C2 (stereo not given) | > 100 | > 100 | > 100 | > 100 | > 100 |  | > 100 |  |  |  |  |  |  |  |  |  |  |  |  | 
9 | C1=CCCC=CCC1.C[PH+](C)C.C[PH+](C)C.C[PH+](C)C.[Cl-].[Ir] | > 100 |  | > 100 |  |  |  | 75.3 |  |  |  | > 100 |  | 28.7 | > 100 |  |  |  |  |  | 
10 | N#CC1=C(N)NC(=O)NC12Nc1ccccc1N2 | > 100 | > 100 | > 100 | > 100 | > 100 | > 100 |  | > 100 | > 100 | > 100 | > 100 | > 100 |  | > 100 | > 100 | > 100 | > 100 | > 100 | > 100 | > 100
11 | COc1ccc2[nH]c(C(=O)OCc3ccc4c(Cl)cc(Cl)c(O)c4n3)cc2c1 | 2.6 | 2.13 | 2.91 | 3.07 | 3.86 | 2.56 | 3.84 | 3.81 | 2.18 |  | 1.3 | 0.768 | 1.5 | 1.44 | 1.42 | 0.803 | 1.28 | 1.02 |  | 1.21
12 | C[C@]12C[C@H](O)[C@H]3[C@@H](CCC4=CC(=O)CC[C@@]43C)[C@@H]1CC[C@@H]2c1csc(-c2ccccc2)n1 | > 100 | > 100 | > 100 | > 100 | > 100 | > 100 |  | > 80 | > 77.8 | > 100 |  |  |  |  |  |  |  |  |  | 
13 | N#Cc1cccc(C2C3=C(COC3=O)N(CCO)c3cc4c(cc32)OCO4)c1 (stereo not given) | > 50 | > 50 | > 50 | > 50 | > 50 | > 50 | 4.36 | 11.1 | > 50 |  | 2.04 | 1.32 | 1.32 | 0.806 | > 50 | 1.79 | 1.3 | 2.42 |  | 1.98
14 | CC1SC(c2ccc(Cl)cc2Cl)N(NC(=O)C(O)c2ccccc2)C1=O (stereo not given) | > 100 | > 100 | > 100 | > 100 | > 100 | > 100 |  | > 100 | > 100 | > 100 | > 100 | 60.1 |  | 42.9 | 44.1 | 38.9 | > 100 | 46.2 | > 100 | > 100
15 | O=C1NC2C(O)CCCCC2C12CCCCC2 (stereo not given) | > 100 | > 100 | > 100 |  | > 100 |  | > 100 |  |  |  |  |  |  |  |  |  |  |  |  | 
16 | COC(=O)CC[C@]12C[C@]13CC[C@]1(C)C4C(C)C[C@]5(CC(C)C(=O)O5)OC4CC1(C)C3CCC2C(C)(C)O (stereo not given in full) | > 100 |  | > 100 |  | 98.7 |  | 66.1 |  |  |  |  |  |  |  |  |  |  |  |  | 
17 | COc1c(N2CCN(CN3C(=O)C(=Nc4ccc(S(=O)(=O)Nc5ncccn5)cc4)c4cc(Cl)ccc43)C(C)C2)c(F)cc2c(=O)c(C(=O)O)cn(C3CC3)c12 (stereo not given) | > 50 | 42.2 | 44.7 | > 50 | > 50 | > 50 | > 50 | 42.8 | 31 |  | 19.2 | 14 | 16.6 | 13.8 | 30 | 16.8 | 11.9 | 8.28 |  | 20.4
18 | COc1cc2cnc3c4cc(OCc5ccccc5)ccc4ccc3c2cc1OC | 44.5 | > 100 | > 100 | 72.6 | 20.2 |  | 9.27 |  |  |  |  |  |  |  |  |  |  |  |  | 
19 | C=C1C[C@@H]2C[C@@H](C)CC(O)[C@]2(CCCN)C1O (stereo not given in full) | > 100 | > 100 | > 100 | > 100 | > 100 |  | > 100 |  |  |  |  |  |  |  |  |  |  |  |  | 
20 | CC1c2[nH]c3ccccc3c2CCN1O (stereo not given) | > 100 | > 100 | > 100 | > 100 | > 100 |  | > 100 |  |  |  |  |  |  |  |  |  |  |  |  | 
21 | O=c1/c(=N\Nc2ccccc2)c2cccc3ccc4cccc1c4c32 | > 100 | > 100 | > 100 | > 100 | > 100 | > 100 |  | > 100 | > 100 | > 100 |  |  |  |  |  |  |  |  |  | 
